Converted amounts (≈) assume the structure as drawn. Like-named read-outs stand apart in the source and are kept apart here.
What was measured:
[1] = system: Escherichia coli JR66/W677; assay: MIC, aminoglycoside-resistant E. coli JR66/W677; type: cell-based; conditions: Escherichia coli, JR66/W677
Experimental: (§1) The minimum inhibitory concentrations (MIC) of Bu-2659A, B, C, D and E were determined for a variety of gram-positive and gram-negative bacteria by the serial two-fold agar dilution method using the Steer's multi-inoculating apparatus. The inoculum was standardized as a 10^4 dilution of an overnight culture of the test organisms in Heart Infusion Broth (Difco). […] Reference antibiotics utilized in these tests included commercially available neomycin as well as its components, neomycins B and C [as used herein, the term "neomycin" means the commercial product containing neomycins B and C at an approximate ratio of 7:3], paromomycin [the commercial product containing >90% of paromomycin I and <10% of paromomycin II] and ribostamycin.

Escherichia coli A20732 = assay: MIC, aminoglycoside-resistant E. coli A20732; type: cell-based; conditions: Escherichia coli, A20732; Table 9; inactivating enzyme ANT(2"); Mueller-Hinton agar; read-out: MIC
Experimental: as §1

Proteus mirabilis A9554 = assay: MIC by serial two-fold agar dilution, P. mirabilis A9554; type: cell-based; conditions: Proteus mirabilis, A9554; Table 7; Mueller-Hinton agar; read-out: MIC
Summary of the method: (§2)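 Overnight cultures grown in Heart Infusion Broth were diluted 10^4-fold, then spotted by Steer's replicator onto agar plates carrying two-fold serial drug dilutions to find the minimum inhibitory concentration.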

[2] = system: Pseudomonas aeruginosa A20896; assay: MIC, aminoglycoside-resistant P. aeruginosa A20896; type: cell-based; conditions: Pseudomonas aeruginosa, A20896; Table 9; inactivating enzyme AAC(3)-II; Mueller-Hinton agar; read-out: MIC
Experimental: as §1

[3] = system: E. coli Juhl, K. pneumoniae D-11, P. mirabilis A9906, S. aureus Smith and S. pyogenes A20201; assay: Experimental systemic infection in mice, overall; type: in vivo
Experimental: (§3) The in vivo activity of Bu-2659A was assessed by experimental systemic infection in mice. The pathogenic bacteria used in the in vivo tests were E. coli Juhl, K. pneumoniae D-11, P. mirabilis A9906, S. aureus Smith and S. pyogenes A20201. Mice were challenged intraperitoneally with approximately 100×LD50 dose of the pathogens in a 5% suspension of hog gastric mucin (American Laboratories, Omaha, Neb.). A single intramuscular treatment with the antibiotic was given immediately after the bacterial challenge. […] Neomycin was comparatively tested as a reference compound. […] In terms of PD50 value Bu-2659A was about one-half as active as neomycin against infections with S. aureus and S. pyogenes.

[4] = system: Klebsiella pneumoniae D11; assay: MIC by serial two-fold agar dilution, K. pneumoniae D11; type: cell-based; conditions: Klebsiella pneumoniae, D11; Table 7; Mueller-Hinton agar; read-out: MIC
Summary of the method: as §2

Proteus mirabilis A9906 = assay: Experimental systemic infection in mice, P. mirabilis A9906; type: in vivo; conditions: Proteus mirabilis, A9906, 96 h, im, single treatment, 4 days, read-out: PD50
Experimental: as §3

Escherichia coli Juhl [5] = assay: Experimental systemic infection in mice, E. coli Juhl; type: in vivo; conditions: Escherichia coli, 96 h, im, single treatment, 4 days, read-out: PD50
Experimental: as §3

[6] = system: Micrococcus luteus PCI 1001; assay: MIC by serial two-fold agar dilution, M. luteus PCI 1001; type: cell-based; conditions: Micrococcus luteus, PCI1001; Table 7; Mueller-Hinton agar; read-out: MIC
Summary of the method: as §2

Escherichia coli ML 1630 = assay: MIC, aminoglycoside-resistant E. coli ML 1630; type: cell-based; conditions: Escherichia coli, ML1630; Table 9; inactivating enzyme APH(3')-I; Mueller-Hinton agar; read-out: MIC
Experimental: as §1

Escherichia coli JR88 = assay: MIC, aminoglycoside-resistant E. coli JR88; type: cell-based; conditions: Escherichia coli, JR88
Summary of the method: as §2

Proteus rettgeri A15167 = assay: MIC by serial two-fold agar dilution, P. rettgeri A15167; type: cell-based; conditions: Providencia rettgeri, A15167; Table 7; Mueller-Hinton agar; read-out: MIC
Summary of the method: as §2

[7] = system: Bacillus brevis IFO 12334; assay: MIC, aminoglycoside-resistant B. brevis IFO 12334; type: cell-based; conditions: Brevibacillus brevis, IFO12334; Table 9; inactivating enzyme ANT (4'); Mueller-Hinton agar; read-out: MIC
Experimental: as §1

[8] = system: Mycobacterium smegmatis 607; assay: MIC by serial two-fold agar dilution, M. smegmatis 607; type: cell-based; conditions: Mycolicibacterium smegmatis, 607; Table 8; No. 1001 medium; read-out: MIC
Experimental: as §1

Escherichia coli Juhl [9] = assay: MIC by serial two-fold agar dilution, E. coli Juhl; type: cell-based; conditions: Escherichia coli; Table 7; Mueller-Hinton agar; read-out: MIC
Summary of the method: as §2

[10] = system: Pseudomonas aeruginosa A9930; assay: MIC by serial two-fold agar dilution, P. aeruginosa A9930; type: cell-based; conditions: Pseudomonas aeruginosa, A9930; Table 7; Mueller-Hinton agar; read-out: MIC
Summary of the method: as §2

[11] = system: Staphylococcus aureus 209P; assay: MIC by serial two-fold agar dilution, S. aureus 209P; type: cell-based; conditions: Staphylococcus aureus, 209P; Table 7; Mueller-Hinton agar; read-out: MIC
Summary of the method: as §2

Micrococcus flavus D12 = assay: MIC by serial two-fold agar dilution, M. flavus D12; type: cell-based; conditions: Micrococcus flavus, D12; Table 7; Mueller-Hinton agar; read-out: MIC
Summary of the method: as §2

[12] = system: Enterobacter cloacae A20364; assay: MIC, aminoglycoside-resistant E. cloacae A20364; type: cell-based; conditions: Enterobacter cloacae, A20364; Table 9; inactivating enzyme APH(3')-I; Mueller-Hinton agar; read-out: MIC
Experimental: as §1

Escherichia coli A20107 = assay: MIC, aminoglycoside-resistant E. coli A20107; type: cell-based; conditions: Escherichia coli, A20107; Table 9; inactivating enzyme APH(3')-II; Mueller-Hinton agar; read-out: MIC
Experimental: as §1

[13] = system: Neisseria meningitidis A21496; assay: MIC by serial two-fold agar dilution, N. meningitidis A21496; type: cell-based; conditions: Neisseria meningitidis, A21496; Table 8; GC medium; read-out: MIC
Experimental: as §1

[14] = system: Escherichia coli JR35/C600; assay: MIC, aminoglycoside-resistant E. coli JR35/C600; type: cell-based; conditions: Escherichia coli, JR35/C600
Experimental: as §1

[15] = system: Neisseria and Haemophilus species; assay: Antibacterial activity (MIC), overall, Neisseria and Haemophilus, Table 8; type: cell-based; conditions: compared with neomycin
Experimental: as §1

Acute toxicity in mice = type: in vivo; conditions: for LD50: mouse, in vivo, mice, read-out: LD50
Experimental: The acute toxicity of Bu-2659A was determined in mice by intravenous, intraperitoneal and subcutaneous routes. Neomycin also was tested for comparison purposes. […] The toxicity of Bu-2659A was approximately 1/3 that of neomycin in terms of LD50 values, thus presenting a potential clinical advantage for Bu-2659A.

[16] = system: Escherichia coli NR79/W677; assay: MIC, aminoglycoside-resistant E. coli NR79/W677; type: cell-based; conditions: Escherichia coli, NR79/W677
Experimental: as §1

[17] = system: Serratia marcescens A20019; assay: MIC by serial two-fold agar dilution, S. marcescens A20019; type: cell-based; conditions: Serratia marcescens, A20019; Table 7; Mueller-Hinton agar; read-out: MIC
Summary of the method: as §2

## NC[C@@H]1O[C@H](O[C@H]2[C@@H](O)[C@H](O[C@@H]3[C@@H](O)[C@H](O)C[C@H](N)[C@H]3O[C@H]3O[C@H](CN)[C@@H](O)[C@H](O)[C@H]3N)O[C@@H]2CO)[C@H](N)[C@@H](O)[C@@H]1O [Bu-2659A, 1-deamino-1-hydroxyneomycin B]
[1]
  MIC: > 100 µg/mL
Escherichia coli A20732
  MIC: 0.8 µg/mL (≈ 1.3 µM)
Proteus mirabilis A9554
  MIC: 0.8 µg/mL (≈ 1.3 µM)
[2]
  MIC: > 100 µg/mL
[3]; five experimental infections
  protection in mice, in words: excellent protection
[3]; infections with S. aureus and S. pyogenes
  in vivo activity relative to neomycin, in terms of PD50: about one-half
[3]; infections with three gram-negative bacteria
  in vivo activity compared with neomycin, in words: comparable to that of neomycin
[4]
  MIC: 0.2 µg/mL (≈ 0.325 µM)
Proteus mirabilis A9906
  ED50: 2.5 mg/kg
Escherichia coli Juhl [5]
  ED50: 3.1 mg/kg
[6]
  MIC: 3.1 µg/mL (≈ 5.04 µM)
Escherichia coli ML 1630
  MIC: > 100 µg/mL
Escherichia coli JR88
  MIC: 1.6 µg/mL (≈ 2.6 µM)
Proteus rettgeri A15167
  MIC: 0.8 µg/mL (≈ 1.3 µM)
[7]
  MIC: > 100 µg/mL
[8]
  MIC: 0.4 µg/mL (≈ 0.65 µM)
Escherichia coli Juhl [9]
  MIC: 3.1 µg/mL (≈ 5.04 µM)
[10]
  MIC: 1.6 µg/mL (≈ 2.6 µM)
[11]
  MIC: 0.8 µg/mL (≈ 1.3 µM)
Micrococcus flavus D12
  MIC: 6.3 µg/mL (≈ 10.2 µM)
[12]
  MIC: 50 µg/mL (≈ 81.2 µM)
Escherichia coli A20107
  MIC: 25 µg/mL (≈ 40.6 µM)
[13]
  MIC: 50 µg/mL (≈ 81.2 µM)
[14]
  MIC: 25 µg/mL (≈ 40.6 µM)
[15]
  activity against Neisseria and Haemophilus, in words: more active than neomycin
Acute toxicity in mice; all routes of administration
  acute toxicity compared with neomycin, in words: significantly less toxic than neomycin
Acute toxicity in mice; intravenous, intraperitoneal, subcutaneous
  toxicity relative to neomycin in terms of LD50 values: approximately 1/3
Acute toxicity in mice; ip, intraperitoneal
  LD50: 460 mg/kg
Acute toxicity in mice; sc, subcutaneous
  LD50: 720 mg/kg
Acute toxicity in mice; intravenous
  LD50: 110 mg/kg
[16]
  MIC: 50 µg/mL (≈ 81.2 µM)
[17]
  MIC: 3.1 µg/mL (≈ 5.04 µM)

— US4504580A, “Antibiotics produced by fermentation of a novel strain of Streptomyces hygroscopicus” (Bristol-Myers Company, priority 1983, dated 1985)
